Read-outs that look alike come from different tables or passages of the source.
Assays:
[1] = biological target: CDK8 (Homo sapiens, UniProt P49336); test: CDK8 enzyme activity assay (ADP-Glo Kinase Assay); type: biochemical; settings: means ± SD; for inhibition at 0.2 µM: CDK8, 200 nM, two experiments, read-out: Inhibition rate @ 200 nM (%); for IC50: three experiments
Protocol: Some of them with high inhibition rates were further measured for their IC50 values. Compound SEL-120 34 A was selected as a positive control. [table] [table] page 14: CO2 atmosphere incubator for 24 h. Then, medium with compound at the concentrations of 100, 20, 4, 0.8, 0.016 μM was added into each well for another 48 h and incubated with CCK-8 (10 μL) for 2 h at 37 °C. The absorbance value at 450 nm was measured by the microplate reader (PerkinElmer Envision). 1.4 Kinase Assay The kinase inhibition was detected by ADP-Glo™ Kinase Assay (Promega) using a black 384-well plate. The active CDK8 kinase was diluted in mixture (5 ng enzyme, 0.5 μg substrate, 50 μM DTT, 1 μL reaction buffer and added ddH2O to 3 μL each well) and the final ATP concentrations of was 50 μM. After incubation at room temperature, ADP-Glo™ solution and kinase detection reagent was added. The data was collected by the microplate reader. 1.5 Cellular thermal shift assay HCT-116 cells were cultured in cell culture dishes and treated with 5 μM compound 12 for 4 h. HCT-116 cells were collected, washed by PBS and cell suspensions were divided into 12 PCR tubes equally. Then,11 tubes were heated at 37, […] After that, cells were broken by ultr asonic treatment and centrifuged at 12000 rpm for 20 min. The supernatant was analyzed by western blot. 1.6 Biotin-pulldown assay After co-treated with 2 μM biotinylated compound and compound 12 for 12 h, HCT-116 cells were lysed with NP-40 containing PMSF and centrifuged at 14000 r for 30 min at 4 °C. Then, 40 μL supernatant was used as the input by adding 10 μL 5×SDS loading buffer, and the remains were mixed with Streptavidin Agarose (Novex, Carlsbad, CA, USA). After 6 h incuba tion at 4 °C, the beads were washed three times using lysis buffer and resuspended in 2× SDS loading buffer. HEK -293T cells overexpressed flag -tagged CDK8 were treated using above method. The samples were analyzed by western blot.

[2] = system: MGC-803; test: Antiproliferative CCK-8 assay, MGC-803; type: cell-based; settings: Homo sapiens; MGC-803, CCK-8 assay, means ± SD; read-out: GC50 (the source's name)
Source text: (§1) Compounds12, 13 and 30 were selected for further cell activity assessments based on the enzymatic activity assessment results. molm-13 and MV4-11(acute myeloid lineage leukaemia cells), MGC-803 (gastric cancer cell), MDA-MB-231(breast cancer cell), A375 (melanoma cell), A549 (lung cancer cell), HCT-116, SW-480 and HT-29 (colorectal cancer cells) were selected to evaluate antitumor activity in vitro, GES-1 (gastric mucosal epithelial cell) was selected to evaluate toxicity in vitro.
(§2) CO2 atmosphere incubator for 24 h. Then, medium with compound at the concentrations of 100, 20, 4, 0.8, 0.016 μM was added into each well for another 48 h and incubated with CCK-8 (10 μL) for 2 h at 37 °C. The absorbance value at 450 nm was measured by the microplate reader (PerkinElmer Envision). […]

[3] = system: A549; test: Antiproliferative CCK-8 assay, A549; type: cell-based; settings: Homo sapiens; A549, CCK-8 assay, means ± SD; read-out: GC50 (the source's name)
Source text: as §1, §2

[4] = system: SW480; test: Antiproliferative CCK-8 assay, SW480; type: cell-based; settings: Homo sapiens; SW480, CCK-8 assay, means ± SD; read-out: GC50 (the source's name)
Source text: as §1, §2

[5] = system: A375; test: Antiproliferative CCK-8 assay, A375; type: cell-based; settings: Homo sapiens, A-375; A375, CCK-8 assay, means ± SD; read-out: GC50 (the source's name)
Source text: as §1, §2

[6] = system: molm-13; test: Antiproliferative CCK-8 assay, molm-13; type: cell-based; settings: Homo sapiens; molm-13, CCK-8 assay, means ± SD; read-out: GC50 (the source's name)
Source text: as §1, §2

[7] = system: HCT-116; test: Antiproliferative CCK-8 assay, HCT-116; type: cell-based; settings: Homo sapiens; HCT-116, CCK-8 assay, means ± SD; read-out: GC50 (the source's name)
Source text: as §1, §2

[8] = system: HT-29; test: Antiproliferative CCK-8 assay, HT-29; type: cell-based; settings: Homo sapiens; HT-29, CCK-8 assay, means ± SD; read-out: GC50 (the source's name)
Source text: as §1, §2

[9] = system: MV4-11; test: Antiproliferative CCK-8 assay, MV4-11; type: cell-based; settings: Homo sapiens; MV4-11, CCK-8 assay, means ± SD; read-out: GC50 (the source's name)
Source text: as §1, §2

[10] = system: GES-1; test: In vitro toxicity CCK-8 assay, GES-1; type: cell-based; settings: Homo sapiens, GES1, GES-1 gastric mucosal epithelial cell, read-out: GC50 (the source's name)
Source text: as §1, §2

[11] = system: MDA-MB-231; test: Antiproliferative CCK-8 assay, MDA-MB-231; type: cell-based; settings: Homo sapiens; MDA-MB-231, CCK-8 assay, means ± SD; read-out: GC50 (the source's name)
Source text: as §1, §2

[12] = Caco-2 permeability determination; type: in vitro ADME; settings: human; for Papp A→B: Caco-2, A→B; for Papp B→A: Caco-2, B→A
[13] = Caco-2, Caco-2, A→B, read-out: Recovery A→B
[14] = Caco-2, Caco-2, B→A, read-out: Recovery B→A

CDK8, sequence (P49336 whole entry): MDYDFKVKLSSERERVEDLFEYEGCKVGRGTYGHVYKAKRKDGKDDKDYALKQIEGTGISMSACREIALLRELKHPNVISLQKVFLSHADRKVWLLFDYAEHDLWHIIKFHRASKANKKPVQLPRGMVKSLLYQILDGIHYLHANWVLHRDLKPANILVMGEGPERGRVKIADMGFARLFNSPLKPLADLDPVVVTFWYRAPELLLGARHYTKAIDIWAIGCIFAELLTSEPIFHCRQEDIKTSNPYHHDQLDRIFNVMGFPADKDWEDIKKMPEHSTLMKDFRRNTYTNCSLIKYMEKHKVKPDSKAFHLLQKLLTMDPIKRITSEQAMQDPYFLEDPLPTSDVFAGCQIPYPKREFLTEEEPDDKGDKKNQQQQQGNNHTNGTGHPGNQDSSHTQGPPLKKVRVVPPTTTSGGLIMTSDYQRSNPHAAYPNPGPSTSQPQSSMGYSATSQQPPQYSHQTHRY
CDK8, sequence (P24863 whole entry partner): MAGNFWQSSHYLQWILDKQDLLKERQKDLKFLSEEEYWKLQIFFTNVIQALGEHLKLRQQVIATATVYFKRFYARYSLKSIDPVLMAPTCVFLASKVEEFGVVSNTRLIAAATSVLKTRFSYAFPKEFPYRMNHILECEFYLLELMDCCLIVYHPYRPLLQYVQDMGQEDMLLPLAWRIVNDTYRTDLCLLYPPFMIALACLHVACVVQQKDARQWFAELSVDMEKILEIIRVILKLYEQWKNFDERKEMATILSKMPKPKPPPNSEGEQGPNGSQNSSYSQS

| inhibition at 0.2 µM [1] [%] | IC50 [1] [nM] | SMILES | further results |
| --- | --- | --- | --- |
| 63 ± 4.5 | 106 ± 4.6 | NC(=O)c1cccc(-c2cnc3[nH]ccc3n2)c1 [Compound 1] |  |
| 35.2 ± 2.8 |  | NC(=O)c1cccc(-c2cnc3[nH]ncc3c2)c1 [Compound 2] |  |
| 50.8 ± 2.3 | 177 ± 7.2 | NC(=O)c1cccc(-c2ccc(N)nc2)c1 [Compound 3] |  |
| 45.6 ± 4.2 |  | NC(=O)c1cccc(-c2cnc(N)c(Cl)c2)c1 [Compound 4] |  |
| 55.7 ± 3.8 | 186 ± 4.5 | NC(=O)c1cccc(-c2cncc3ccccc23)c1 [Compound 5] |  |
| 75.8 ± 5.9 | 64.5 ± 3.8 | NC(=O)c1cccc(-c2cnc(N)c3ccccc23)c1 [Compound 6] |  |
| 59.1 ± 2.1 | 212 ± 6.1 | NC(=O)c1cccc(-c2ccc3[nH]ccc3c2)c1 [Compound 7] |  |
| 51.7 ± 5.4 | 255 ± 4.5 | Cn1ccc2cc(-c3cccc(C(N)=O)c3)ccc21 [Compound 8] |  |
| 60.4 ± 4.3 | 190 ± 4.9 | NC(=O)c1cccc(-c2ccc3occc3c2)c1 [Compound 9] |  |
| 38.3 ± 2.2 |  | NC(=O)c1cccc(-c2ccc3sccc3c2)c1 [Compound 10] |  |
| 51.8 ± 4.3 |  | NC(=O)c1cccc(-c2cnc3[nH]cc(Cl)c3c2)c1 [Compound 11] |  |
| 70.4 ± 3.6 | 65.7 ± 3.1 | NC(=O)c1cccc(-c2cnc3[nH]cc(-c4ccsc4)c3c2)c1 [Compound 13] | IC50 [2]: 9.19 ± 2.42 µM; IC50 [3]: 21.8 ± 1.66 µM; IC50 [4]: 5.45 ± 2.82 µM; IC50 [5]: 0.95 ± 0.52 µM; IC50 [6]: 160 ± 20 nM; IC50 [7]: 2.48 ± 0.99 µM; IC50 [8]: 9.31 ± 1.67 µM; IC50 [9]: 360 ± 120 nM; IC50 [10]: 24.2 ± 3.62 µM; IC50 [11]: 31.5 ± 1.27 µM |
| 52.5 ± 2.8 | 186 ± 4.6 | NC(=O)c1cccc(-c2cnc3[nH]cc(-c4cccs4)c3c2)c1 [Compound 14] |  |
| 49.1 ± 3.4 |  | NC(=O)c1cccc(-c2cnc3[nH]cc(-c4cn[nH]c4)c3c2)c1 [Compound 15] |  |
| 29.5 ± 2.3 |  | Cn1cc(-c2c[nH]c3ncc(-c4cccc(C(N)=O)c4)cc23)cn1 [Compound 16] |  |
| 46.5 ± 1.8 |  | CCOC(C)n1cc(-c2c[nH]c3ncc(-c4cccc(C(N)=O)c4)cc23)cn1 (centres unmarked) [Compound 17] |  |
| 32.5 ± 4.9 |  | NC(=O)c1cccc(-c2cnc3[nH]cc(-c4cnn(C(F)F)c4)c3c2)c1 [Compound 18] |  |
| 57.4 ± 1.4 | 158 ± 4.3 | NC(=O)c1cccc(-c2cnc3[nH]cc(-c4ccccc4)c3c2)c1 [Compound 19] |  |
| 58.7 ± 3.3 | 161 ± 3.1 | NC(=O)c1cccc(-c2cnc3[nH]cc(-c4ccccc4F)c3c2)c1 [Compound 20] |  |
| 23.6 ± 2.6 |  | NC(=O)c1cccc(-c2cnc3[nH]cc(-c4ccccc4Cl)c3c2)c1 [Compound 21] |  |
| 36.2 ± 2.7 |  | NC(=O)c1cccc(-c2cnc3[nH]cc(-c4ccccc4O)c3c2)c1 [Compound 22] |  |
| 51.6 ± 2.6 | 193 ± 6.6 | Cc1ccccc1-c1c[nH]c2ncc(-c3cccc(C(N)=O)c3)cc12 [Compound 23] |  |

| inhibition at 0.2 µM [1] [%] | IC50 [1] [nM] | SMILES | further results |
| --- | --- | --- | --- |
| 24.6 ± 2.4 |  | CCc1ccccc1-c1c[nH]c2ncc(-c3cccc(C(N)=O)c3)cc12 [Compound 24] |  |
| 62 ± 4.6 | 136 ± 5.3 | COc1ccccc1-c1c[nH]c2ncc(-c3cccc(C(N)=O)c3)cc12 [Compound 25] |  |
| 33.1 ± 4.2 |  | CC(C)c1ccccc1-c1c[nH]c2ncc(-c3cccc(C(N)=O)c3)cc12 [Compound 26] |  |
| 15.9 ± 5.2 |  | NC(=O)c1cccc(-c2cnc3[nH]cc(-c4ccccc4C(F)(F)F)c3c2)c1 [Compound 27] |  |
| 16.9 ± 2.2 |  | NC(=O)c1cccc(-c2cnc3[nH]cc(-c4ccccc4OC(F)(F)F)c3c2)c1 [Compound 28] |  |
| 23.1 ± 2.5 |  | NC(=O)c1cccc(-c2cnc3[nH]cc(-c4cccc(F)c4)c3c2)c1 [Compound 29] |  |
| 65.5 ± 3.8 | 86.7 ± 6.5 | NC(=O)c1cccc(-c2cnc3[nH]cc(-c4cccc(Cl)c4)c3c2)c1 [Compound 30] | IC50 [2]: > 50 µM; IC50 [3]: > 50 µM; IC50 [4]: > 50 µM; IC50 [5]: > 50 µM; IC50 [6]: > 50000 nM; IC50 [7]: > 50 µM; IC50 [8]: > 50 µM; IC50 [9]: > 50000 nM; IC50 [10]: > 100 µM; IC50 [11]: > 50 µM |
| 30.5 ± 2.3 |  | NC(=O)c1cccc(-c2cnc3[nH]cc(-c4cccc(O)c4)c3c2)c1 [Compound 31] |  |
| 44 ± 3.8 |  | COc1cccc(-c2c[nH]c3ncc(-c4cccc(C(N)=O)c4)cc23)c1 [Compound 32] |  |
| 34.6 ± 4.1 |  | NC(=O)c1cccc(-c2cnc3[nH]cc(-c4cccc(C(F)(F)F)c4)c3c2)c1 [Compound 33] |  |
| 23.4 ± 3.3 |  | NC(=O)c1cccc(-c2cnc3[nH]cc(-c4cccc(OC(F)(F)F)c4)c3c2)c1 [Compound 34] |  |
| 55.8 ± 4.6 |  | NC(=O)c1cccc(-c2cnc3[nH]cc(-c4ccc(F)cc4)c3c2)c1 [Compound 35] |  |
| 61.6 ± 5.4 | 128 ± 3.8 | NC(=O)c1cccc(-c2cnc3[nH]cc(-c4ccc(Cl)cc4)c3c2)c1 [Compound 36] |  |
| 28.3 ± 3.1 |  | NC(=O)c1cccc(-c2cnc3[nH]cc(-c4ccc(O)cc4)c3c2)c1 [Compound 37] |  |
| 26.4 ± 1.6 |  | COc1ccc(-c2c[nH]c3ncc(-c4cccc(C(N)=O)c4)cc23)cc1 [Compound 38] |  |
| 22.3 ± 3.7 |  | NC(=O)c1cccc(-c2cnc3[nH]cc(-c4ccc(C(F)(F)F)cc4)c3c2)c1 [Compound 39] |  |
| 46.3 ± 1.9 |  | NC(=O)c1cccc(-c2cnc3[nH]cc(-c4ccc(OC(F)(F)F)cc4)c3c2)c1 [Compound 40] |  |
|  |  | C[C@H]1O[C@@H](O[C@H]2[C@@H](O)C[C@H](O[C@H]3[C@@H](O)C[C@H](O[C@H]4CC[C@@]5(C)[C@H](CC[C@@H]6[C@@H]5C[C@@H](O)[C@]5(C)[C@@H](C7=CC(=O)OC7)CC[C@]65O)C4)O[C@@H]3C)O[C@@H]2C)C[C@H](O)[C@@H]1O [Digoxin] | efflux ratio ([12]; Caco-2): 6.2; recovery [12, 13]: 92.5%; recovery [12, 14]: 99.2%; Papp A→B [12]: 0.9 ×10⁻⁶ cm/s; Papp B→A [12]: 5.6 ×10⁻⁶ cm/s |
|  |  | CC(C)(C)NCC(O)COc1cccc2c1CC(O)C(O)C2 (centres unmarked) [Nadolol] | recovery [12, 14]: 111%; Papp A→B [12]: 0.2 ×10⁻⁶ cm/s; Papp B→A [12]: 0.5 ×10⁻⁶ cm/s |
|  |  | CC(C)NCC(O)COc1cccc2ccccc12 (centres unmarked) [Propranolol] | recovery [12, 13]: 99.9%; recovery [12, 14]: 107%; Papp A→B [12]: 40.2 ×10⁻⁶ cm/s; Papp B→A [12]: 34.1 ×10⁻⁶ cm/s |
| 82.5 ± 5.8 | 37.2 ± 2.5 | Cc1c(Br)c(Br)c2c3c1nc(N1CCNCC1)n3CCC2 [SEL-120-34A, reference compound] | IC50 [2]: 16.3 ± 1.86 µM; IC50 [3]: 12.1 ± 0.37 µM; IC50 [4]: 17.7 ± 2.1 µM; IC50 [5]: 5.9 ± 1.43 µM; IC50 [6]: 20 ± 10 nM; IC50 [7]: 11.3 ± 1.9 µM; IC50 [8]: 33.8 ± 1.4 µM; IC50 [9]: 7 ± 1 nM; IC50 [10]: 55.3 ± 3.2 µM; IC50 [11]: 9.6 ± 0.81 µM |
